Data set [1] in a line: Total plasma concentration in Wistar Han rat at 1 to 2 mg/kg, iv infused for 10 to 20 hrs by LC-MS/MS analysis. The conditions noted are these: in vivo.
Data set [2] can be described thus: Unbound tissue partition coefficient, ratio of drug level in skeletal muscle to plasma in Wistar Han rat at 1 to 2 mg/kg, iv infused for 10 to 20 hrs by LC-MS/MS analysis. The conditions noted are these: skeletal muscle/plasma.
A short description of data set [3]: Drug concentration in total liver in Wistar Han rat at 1 to 2 mg/kg, iv infused for 10 to 20 hrs by LC-MS/MS analysis. The note with it: in vivo.
Data set [4] can be described thus: Unbound tissue partition coefficient, ratio of drug level in adipose to plasma in Wistar Han rat at 1 to 2 mg/kg, iv infused for 10 to 20 hrs by LC-MS/MS analysis. The conditions noted are these: adipose/plasma.
The nature of data set [5]: Fraction unbound in Wistar Han rat heart at 2 uM incubated for 6 hrs by equilibrium dialysis method. A general note: In equilibrium dialysis only unbound substance equilibrates across the membrane.
A short description of data set [6]: Unbound tissue partition coefficient, ratio of drug level in liver to plasma in Wistar Han rat at 1 to 2 mg/kg, iv infused for 10 to 20 hrs by LC-MS/MS analysis. The conditions noted are these: liver/plasma.
Data set [7] can be described thus: Unbound tissue partition coefficient, ratio of drug level in brain to plasma in Wistar Han rat at 1 to 2 mg/kg, iv infused for 10 to 20 hrs by LC-MS/MS analysis. The conditions noted are these: brain/plasma.
A short description of data set [8]: Fraction unbound in Wistar Han rat brain at 2 uM incubated for 6 hrs by equilibrium dialysis method.
Data set [9] can be described thus: Fraction unbound in Wistar Han rat liver at 2 uM incubated for 6 hrs by equilibrium dialysis method.
Data set [10] can be described thus: Fraction unbound in Wistar Han rat skeletal muscle at 2 uM incubated for 6 hrs by equilibrium dialysis method.
Data set [11] is described as follows: Drug concentration in total heart in Wistar Han rat at 1 to 2 mg/kg, iv infused for 10 to 20 hrs by LC-MS/MS analysis. The conditions noted are these: in vivo.
The nature of data set [12]: Apparent permeability of the compound across dog RRCK cells by MDCK-LE assay.
Data set [13] in a line: Drug concentration in total skeletal muscle in Wistar Han rat at 1 to 2 mg/kg, iv infused for 10 to 20 hrs by LC-MS/MS analysis. The note with it: in vivo.
Data set [14] can be described thus: Unbound tissue partition coefficient, ratio of drug level in heart to plasma in Wistar Han rat at 1 to 2 mg/kg, iv infused for 10 to 20 hrs by LC-MS/MS analysis. The conditions noted are these: heart/plasma.
A short description of data set [15]: Fraction unbound in Wistar Han rat plasma at 2 uM incubated for 6 hrs by equilibrium dialysis method.
Data set [16] is described as follows: Drug concentration in total white adipose tissue in Wistar Han rat at 1 to 2 mg/kg, iv infused for 10 to 20 hrs by LC-MS/MS analysis. The conditions noted are these: in vivo.
The nature of data set [17]: Drug concentration in total brain in Wistar Han rat at 1 to 2 mg/kg, iv infused for 10 to 20 hrs by LC-MS/MS analysis. The note with it: in vivo.
The nature of data set [18]: Fraction unbound in Wistar Han rat white adipose tissue at 2 uM incubated for 6 hrs by equilibrium dialysis method.

SMILES strings stand for the structures.

What is called fraction unbound is free concentration divided by total concentration. Read a high fraction unbound as weak binding. By Papp is commonly meant the rate of passage across a membrane or cell layer, normalised by area and donor concentration.

Regarding `CC1(C)CN(CCC#N)C(=O)[C@@H]1Oc1ccc(C#N)c(C(F)(F)F)c1`, the Cp in [1] is 160 ng/mL. The Kp uu in data set [2] worked out at 0.48; in data set [4], 0.81; in data set [6], 1; in data set [7] it was 0.11; in [14] it was 0.55. Moreover, the Ct came out at 500 ng/mL in data set [3]; 210 ng/mL in [11]; 110 ng/mL in data set [13]; 250 ng/mL in data set [16]; 91 ng/mL in data set [17]. The fraction unbound at 6 h, 2 µM came to 0.152 in [5]; 0.0717 in [8]; 0.122 in [9]; 0.263 in data set [10]; 0.358 in data set [15]; 0.185 in [18]. The Papp in data set [12] turned out to be 40 ×10⁻⁶ cm/s.

Compound `C[C@H]1c2cccc(CCC(C)(C)O)c2C[C@H](CO)N1C(=O)Cc1c(Cl)cccc1Cl` gave a Cp in [1] of 150 ng/mL. Besides, the Kp uu in data set [2] was 1.3; in [4], 4.9; in data set [6], 9.8; in data set [7] it was 0.35; in [14], 2.3. Also, the Ct in data set [3] is 690 ng/mL; in data set [11], 190 ng/mL; in data set [13] it was 95 ng/mL; in [16], 110 ng/mL; in data set [17] it was 39 ng/mL. For the same compound, the fraction unbound at 6 h, 2 µM in data set [5] came out at 0.016; in data set [8] it was 0.0113; in data set [9] it was 0.0158; in data set [10], 0.0161; in [15], 0.012; in data set [18], 0.0547. Also, the Papp in [12] worked out at 27 ×10⁻⁶ cm/s.

`C[C@H]1COCCN1c1nc(-c2cnc(N)nc2)c2c(n1)N([C@@]1(C)CCN(C(=O)C(C)(C)N)C1)CC2` returned a Cp in data set [1] of 4.5 ng/mL. Besides, the Kp uu amounted to 3.5 in data set [2]; 6.9 in data set [4]; 3.6 in [6]; 0.065 in data set [7]; 18 in data set [14]. Moreover, the Ct came to 46 ng/mL in data set [3]; 400 ng/mL in data set [11]; 38 ng/mL in data set [13]; 45 ng/mL in data set [16]; 2 ng/mL in data set [17]. Moreover, the fraction unbound at 6 h, 2 µM in data set [5] stood at 0.0824; in data set [8], 0.0654; in data set [9], 0.146; in data set [10], 0.16; in [15], 0.438; in data set [18], 0.281. Further, the Papp in data set [12] was found to be 5.1 ×10⁻⁶ cm/s.

Compound `O=C(O)c1c[nH]c2cc(Cl)c(-c3ccc(CC(=O)N4CCOCC4)cc3)cc12` came in with a Cp in data set [1] of 72 ng/mL. The Kp uu in [2] amounted to 0.16; in data set [4], 1.6; in data set [6], 40; in [7] it was 0.0018; in data set [14] it was 3.4. Besides, the Ct was 210 ng/mL in data set [3]; 21 ng/mL in data set [11]; 0.89 ng/mL in data set [13]; 2 ng/mL in data set [16]; 0.38 ng/mL in data set [17]. Moreover, the fraction unbound at 6 h, 2 µM was 0.0746 in [5]; 0.181 in data set [8]; 0.0789 in data set [9]; 0.133 in data set [10]; 0.00645 in data set [15]; 0.386 in [18]. Besides, in data set [12], the Papp was found to be 2.4 ×10⁻⁶ cm/s.

`Cc1c(C(=O)O)cnn1-c1nc(-c2cccc(C(F)(F)F)c2)cs1` returned a Cp in data set [1] of 93 ng/mL. Also, the Kp uu in data set [2] was determined as 0.45; in data set [4], 0.86; in [6], 3.9; in data set [7] it was 0.12; in [14], 1.4. Further, the Ct in data set [3] is 520 ng/mL; in data set [11] it was 130 ng/mL; in [13], 29 ng/mL; in data set [16], 13 ng/mL; in data set [17] it was 22 ng/mL. Further, the fraction unbound at 6 h, 2 µM in data set [5] came out at 0.00954; in data set [8], 0.00498; in [9], 0.00676; in [10], 0.0139; in data set [15], 0.00965; in data set [18], 0.0597. For the same compound, the Papp in data set [12] was 38 ×10⁻⁶ cm/s.

`NC(=O)c1c(-c2ccc(Oc3ccc(Cl)cc3)cc2)nn([C@@H]2CCCN(C(=O)/C=C/CO)C2)c1N` yielded a Cp in [1] of 55 ng/mL. For the same compound, the Kp uu amounted to 1.3 in [2]; 2 in [4]; 4.5 in [6]; 0.011 in data set [7]; 2.7 in [14]. Also, the Ct was determined as 470 ng/mL in data set [3]; 240 ng/mL in [11]; 97 ng/mL in data set [13]; 21 ng/mL in [16]; 2.4 ng/mL in data set [17]. Moreover, the fraction unbound at 6 h, 2 µM came to 0.013 in [5]; 0.00529 in data set [8]; 0.0115 in data set [9]; 0.0154 in data set [10]; 0.0219 in [15]; 0.113 in data set [18]. In addition, the apparent permeability coefficient (Papp) in data set [12] was determined as 5.5 ×10⁻⁶ cm/s.

As to `Cn1nc(C(=O)NCCN2CCOCC2)cc1-c1cc2ccccc2[nH]1`, the Cp in data set [1] stood at 29 ng/mL. Further, the Kp uu in data set [2] turned out to be 0.57; in data set [4] it was 1.1; in data set [6], 4.4; in [7], 0.12; in [14], 1.3. For the same compound, the Ct in data set [3] is 300 ng/mL; in [11], 150 ng/mL; in [13], 42 ng/mL; in data set [16], 29 ng/mL; in [17], 19 ng/mL. For the same compound, the fraction unbound at 6 h, 2 µM in [5] was 0.0422; in data set [8], 0.0291; in data set [9], 0.0714; in data set [10] it was 0.0664; in data set [15] it was 0.176; in data set [18], 0.189. For the same compound, the Papp in [12] was 33 ×10⁻⁶ cm/s.

In turn, `Cc1ccc(NC(=O)c2cc(Oc3ccc(S(C)(=O)=O)cc3)c3c(c2)OC(C)(C)C3)nc1` had a Cp in data set [1] of 68 ng/mL. For the same compound, the Kp uu in [2] turned out to be 0.18; in data set [4], 0.41; in data set [6], 0.24; in [7], 0.1; in data set [14], 0.43. The Ct in [3] is 150 ng/mL; in data set [11], 220 ng/mL; in data set [13], 89 ng/mL; in data set [16], 1000 ng/mL; in data set [17], 69 ng/mL. In addition, the fraction unbound at 6 h, 2 µM amounted to 0.0109 in [5]; 0.0077 in data set [8]; 0.00864 in [9]; 0.011 in data set [10]; 0.0809 in data set [15]; 0.00216 in data set [18]. In addition, the apparent permeability coefficient (Papp) in data set [12] worked out at 22 ×10⁻⁶ cm/s.

As for `CC(=O)NS(=O)(=O)c1ccc(Oc2ccc(F)c(Cl)c2)c(C(F)(F)F)c1`, the Cp in [1] worked out at 450 ng/mL. The Kp uu in data set [2] was determined as 0.72; in data set [4], 1.6; in [6] it was 0.033; in data set [7], 0.074; in [14], 1.8. The Ct worked out at 1.4 ng/mL in data set [3]; 103 ng/mL in data set [11]; 24 ng/mL in data set [13]; 14 ng/mL in data set [16]; 4.4 ng/mL in data set [17]. The fraction unbound at 6 h, 2 µM in data set [5] stood at 0.0329; in [8], 0.0319; in data set [9], 0.0598; in data set [10] it was 0.0581; in data set [15], 0.00426; in data set [18], 0.229. The Papp in data set [12] amounted to 35 ×10⁻⁶ cm/s.

For `COc1cc2c(cc1Cc1ccccc1)C[C@H](N)C(=O)N2OC(=O)N(C)C`, in data set [1], the Cp was 18 ng/mL. Moreover, the Kp uu was 0.46 in data set [2]; 1.1 in data set [4]; 0.74 in [6]; 0.1 in [7]; 2.5 in data set [14]. Also, the Ct came out at 33 ng/mL in [3]; 76 ng/mL in data set [11]; 32 ng/mL in data set [13]; 33 ng/mL in data set [16]; 16 ng/mL in data set [17]. Moreover, the fraction unbound at 6 h, 2 µM in data set [5] is 0.209; in data set [8] it was 0.0385; in data set [9], 0.147; in data set [10], 0.0886; in data set [15], 0.354; in [18], 0.214. The Papp in data set [12] amounted to 38 ×10⁻⁶ cm/s.
